Counter-ions that a name gives are not always drawn. Activity calls are given as the source filed them. The rule behind the calls is not given here.
Assay: Cytotoxicity activity against human HepG2 cells assessed by CellTiter-Glo luminescent cell viability assay.
Type: toxicity, cell-based
Set-up: assay stage confirmatory assay, source tissue liver
Conditions: HepG2 cells, read-out: IC50 relative

Which CC50 does the source give for CC(=O)NC(c1ccccc1)c1cc(Cl)c2cccnc2c1O (stereo not drawn) here?
The CC50 was 1.4 µM (active).

Which CC50 does the source give for CNc1nc(NCc2ccc(NS(C)(=O)=O)cc2Cl)cc(-c2ccccn2)n1 here?
Its CC50 is 14.3 µM (inactive).

With CC(C)c1cnn2c(NCc3ccccc3)cc(NCCCCCCN)nc12 as the compound, how does the CC50 read?
The CC50 was 9.3 µM (active).

With O=S(=O)(C[C@H]1CCOC1)NC1CCN(Cc2ccc(Cl)cc2)CC1 as the compound, how does the CC50 read?
The CC50 was 12.9 µM (active).

For Cc1coc2c1C(=O)C(=O)c1c-2ccc2c1CCCC2(C)C [TANSHINONE IIA], which CC50 is on record?
The CC50 was 5 µM (active).

For N#Cc1c[nH]c(C(=O)Nc2cc(C(F)(F)F)ccn2)c1, which CC50 is on record?
Its CC50 is 12.3 µM (active).

With CC(C)C[C@H](NC(=O)[C@@H](NC(=O)c1cccc(-c2ccccc2)n1)[C@@H](C)O)B(O)O [DELANZOMIB] as the compound, how does the CC50 read?
The CC50 was < 0.1 µM (active).

For CC1(C)CCC2=C(O1)c1ccccc1C(=O)C2=O [LAPACHONE], which CC50 is on record?
The CC50 was 2.3 µM (active).

Which CC50 does the source give for CS(=O)(=O)c1ncc(Br)c(C(=O)Nc2ccc(F)cc2)n1 here?
Its CC50 is 2.8 µM (active).

Which CC50 does the source give for Cc1cc([C@H]2CCCN(CC(=O)Nc3nccs3)C2)n[nH]1 here?
The CC50 was 6.6 µM (inactive).

For Cc1nccn1-c1ccc(NC(=O)c2cccc(OC(C)C)n2)cn1, which CC50 is on record?
The CC50 was 6.5 µM (active).

Which CC50 does the source give for COc1ccc(OCC(=O)N2CCN(S(=O)(=O)c3ccc4c(c3)NC(=O)C(C)O4)CC2)cc1 (stereo not drawn) here?
The CC50 was 5.8 µM (active).

Which CC50 does the source give for Cc1cc(NC(=O)CN2CCCC[C@@H]2C)n(C)n1 here?
The CC50 was 50 µM (inactive).

For Nc1ncnc2c1c(-c1cnc3[nH]ccc3c1)nn2C1CCCC1, which CC50 is on record?
The CC50 was 1.6 µM (active).

Which CC50 does the source give for CCc1ccc(NC(=O)Nc2ccc3c(c2)N(S(=O)(=O)CC)CC3)cc1 here?
Its CC50 is 2.4 µM (active).

Which CC50 does the source give for Cc1nc(-c2ccccn2)[nH]c(=O)c1CC(=O)N1CCC[C@H]1C1CCCCC1 here?
The CC50 was 6.7 µM (active).

With Fc1ccc(CNc2ncnc3ccc(F)cc23)cc1 as the compound, how does the CC50 read?
The CC50 was 4.3 µM (active).

With C[C@H]1Cc2c([nH]c3cc(Cl)c(F)cc23)[C@@]2(N1)C(=O)Nc1ccc(Cl)cc12 [CIPARGAMIN] as the compound, how does the CC50 read?
Its CC50 is 10.8 µM (active).

With CCN1C[C@H](CN(C)CC(=O)c2c(N)n(C3CC3)c(=O)[nH]c2=O)Oc2ccccc21 as the compound, how does the CC50 read?
The CC50 was 13.8 µM (inactive).

For Cc1cccc(NC(=O)Nc2ccc3c(c2)N(S(C)(=O)=O)CC3)c1, which CC50 is on record?
Its CC50 is 3.3 µM (active).

For CSc1ccc2c(c1)C(N1CCN(C)CC1)Cc1ccccc1S2 (stereo not drawn) [METITEPINE], which CC50 is on record?
Its CC50 is 4.9 µM (active).

Which CC50 does the source give for O=C(Nc1ccc(I)cc1)c1ccc(CN2CCOCC2)cc1 here?
The CC50 was 7.7 µM (inactive).

Which CC50 does the source give for CS(=O)(=O)Nc1ccc(C(=O)N2CCN(CCOc3ccc(Cl)cc3)CC2)cc1 here?
Its CC50 is 4.6 µM (active).

With O=C(c1cccc(S(=O)(=O)N2CCOCC2)c1)N1CCN(c2nc3ccccc3s2)CC1 as the compound, how does the CC50 read?
The CC50 was 5 µM (active).

For COc1ccc(-n2ccc(C(=O)Nc3cnccc3C(N)=O)n2)cc1, which CC50 is on record?
Its CC50 is 5.4 µM (active).

With C[C@]12CC[C@H](O)CC1=CC[C@@H]1[C@@H]2CC[C@]2(C)C(n3cnc4ccccc43)=CC[C@@H]12 [GALETERONE] as the compound, how does the CC50 read?
Its CC50 is 10.4 µM (active).

With COc1cc(N)c(Cl)cc1C(=O)NC1CCN(CCCOc2ccc(F)cc2)CC1OC (stereo not drawn) [CISAPRIDE MONOHYDRATE] as the compound, how does the CC50 read?
The CC50 was 38 µM (inactive).

With CCCCCCCCc1ccc(CCC(N)(CO)CO)cc1 [FINGOLIMOD HYDROCHLORIDE] as the compound, how does the CC50 read?
Its CC50 is 1.4 µM (active).

For Cc1cc(C(=O)Nc2ccc(Cl)cc2F)nc2ccnn12, which CC50 is on record?
The CC50 was 2.4 µM (inactive).

With CCS(=O)(=O)c1ncc(Br)c(C(=O)Nc2ccc(C)cc2)n1 as the compound, how does the CC50 read?
The CC50 was 3.1 µM (active).

For COc1cc2c(cc1F)CN(Cc1cnc3ccccn13)CC2, which CC50 is on record?
Its CC50 is 2 µM (active).

Which CC50 does the source give for COc1ccc(-c2cc3c(C)nc(N)nc3n([C@H]3CC[C@H](OCCO)CC3)c2=O)cn1 [PF-04691502] here?
The CC50 was 0.6 µM (active).

Which CC50 does the source give for CCOc1ncccc1C(=O)Nc1nc2cc(C#N)ccc2n1CC here?
Its CC50 is 5.9 µM (active).

With CN(C)CCCN1c2ccccc2CCc2ccc(Cl)cc21 [CLOMIPRAMINE HYDROCHLORIDE] as the compound, how does the CC50 read?
The CC50 was 6.5 µM (active).

With Cc1cc(N2CCC[C@H](c3c[nH]c4ncccc34)C2)n2ncnc2n1 as the compound, how does the CC50 read?
Its CC50 is 8.5 µM (active).

Which CC50 does the source give for Cc1cccc(N2CCN(CC(=O)c3c(N)n(CC(C)C)c(=O)n(C)c3=O)CC2)c1C here?
The CC50 was 10.7 µM (active).

With Cn1c(=O)c2ccc(C(=O)Nc3nc(-c4ccco4)cs3)nc2n(C)c1=O as the compound, how does the CC50 read?
The CC50 was 10.5 µM (inactive).

With O=S(=O)(c1ccccc1)N1CCN(c2ccc(Nc3ccncc3)nn2)CC1 as the compound, how does the CC50 read?
The CC50 was 16.9 µM (inactive).

Which CC50 does the source give for CC(C)Oc1ccc(C(=O)Nc2ccc3c(c2)N(S(C)(=O)=O)CCC3)cc1 here?
The CC50 was 2.7 µM (active).

Which CC50 does the source give for Cc1ccc(NCc2cc(=O)n3c(C)csc3n2)c(F)c1 here?
Its CC50 is 7.2 µM (active).

For C[C@@H](OC[C@@]1(c2ccccc2)CC[C@]2(CCC(=O)N2)CN1)c1cc(C(F)(F)F)cc(C(F)(F)F)c1 [ROLAPITANT], which CC50 is on record?
Its CC50 is 8.9 µM (active).

For Cc1cccc(-c2noc(-c3ccc(N4CCN(C)CC4)nc3)n2)c1, which CC50 is on record?
The CC50 was 5 µM (active).

For CCN1C(=O)COc2ccc(NC(=O)c3cc(-c4ccc5c(c4)OCCO5)on3)cc21, which CC50 is on record?
Its CC50 is 50 µM (inactive).

For O=C(Nc1nnc(-c2ccccc2)o1)c1cccc(S(=O)(=O)N2CCOCC2)c1, which CC50 is on record?
The CC50 was 8.9 µM (active).

With COc1ccc2cc(CN3CCC(n4ccnc4)CC3)ccc2c1 as the compound, how does the CC50 read?
Its CC50 is 11.5 µM (active).

For CCOc1ccc(S(=O)(=O)NCC2(C)CCNCC2)c2ccccc12, which CC50 is on record?
The CC50 was 10 µM (active).

Which CC50 does the source give for COc1cc2c(NC3CCN(C4CCCCC4)CC3)nc(N3CCCN(C(C)C)CC3)nc2cc1OCCCN1CCCCC1 here?
Its CC50 is 6.6 µM (active).

Which CC50 does the source give for CCCN(CCC)CCNC(=O)Cn1cnc2onc(-c3ccc(Cl)cc3)c2c1=O here?
Its CC50 is 5.9 µM (active).

For CC(C)c1c(O)cc(/C=C/c2ccccc2)cc1O [TAPINAROF], which CC50 is on record?
The CC50 was 8.9 µM (active).

For C[C@@H]1CN(c2cc(-c3n[nH]c4ccc(OC5(C)CC5)cc34)ncn2)C[C@H](C)O1 [MLi-2], which CC50 is on record?
Its CC50 is 16.5 µM (active).

For CCN1CCN(Cc2ccc(-c3cc4c(N[C@H](C)c5ccccc5)ncnc4[nH]3)cc2)CC1 [AEE-788], which CC50 is on record?
Its CC50 is 4.1 µM (active).

With Cc1c(O)cccc1C(=O)NC(CSc1ccccc1)C(O)CN1CC2CCCCC2CC1C(=O)NC(C)(C)C (stereo not drawn) as the compound, how does the CC50 read?
Its CC50 is 11.3 µM (active).

Which CC50 does the source give for CCn1c(NC(=O)c2ccc(=O)n(CCOc3ccccc3)n2)nc2ccccc21 here?
Its CC50 is 4.6 µM (active).

Which CC50 does the source give for COc1ccc(F)c(F)c1C(=O)c1cnc(NC2CCN(S(C)(=O)=O)CC2)nc1N [RG-547] here?
The CC50 was 0.5 µM (active).

For COc1ccc(C(=O)Nc2nc3cc4c(cc3s2)OCCO4)cn1, which CC50 is on record?
The CC50 was 50 µM (inactive).

Which CC50 does the source give for O=C(Nc1ccc2c(c1)OCCO2)N1CCN(c2ccnc(N3CCCCC3)n2)CC1 here?
The CC50 was 12.1 µM (active).

With CCN1CCN(Cc2ccc(C(=O)Nc3ccc(C)c(Oc4ccc5c(c4)CC(=O)N5)c3)cc2C(F)(F)F)CC1 as the compound, how does the CC50 read?
Its CC50 is 6.2 µM (active).

For c1ccc2c(c1)sc1ncnc(NC[C@H]3CN(C4CC4)CCO3)c12, which CC50 is on record?
Its CC50 is 11.8 µM (active).

With O=C(Nc1nc(-c2ccccc2)cs1)C1CCN(S(=O)(=O)c2cccnc2)CC1 as the compound, how does the CC50 read?
The CC50 was 6 µM (active).

With C[C@@H](c1ccccc1F)N(Cn1ncc(Cl)c(Cl)c1=O)C1CC1 as the compound, how does the CC50 read?
The CC50 was 11.4 µM (active).

For C[C@]12CC/C(=N\OCCN)C[C@@H]1C(=O)C[C@@H]1[C@@H]2CC[C@]2(C)C(=O)CC[C@@H]12, which CC50 is on record?
Its CC50 is 10.5 µM (active).

For CN1C[C@H](C(=O)N[C@]2(C)O[C@@]3(O)[C@@H]4CCCN4C(=O)[C@H](Cc4ccccc4)N3C2=O)C[C@@H]2c3cccc4[nH]cc(c34)C[C@H]21 [DIHYDROERGOTAMINE MESYLATE], which CC50 is on record?
The CC50 was 12.9 µM (active).

Which CC50 does the source give for COc1ccccc1C(=O)Nc1cc2c(cc1N1CCNC[C@H]1C)n(C)c(=O)n2C here?
The CC50 was 16.9 µM (inactive).
